Measured values reported in the supplement of paper PMC10307832.

Experiments:
Assay in all cases: relative viability (nuclei count vs DMSO), 5 days (fraction); higher = more cells survive
Carfilzomib + Decitabine = compound: CC(C)C[C@H](NC(=O)[C@H](CCc1ccccc1)NC(=O)CN1CCOCC1)C(=O)N[C@@H](Cc1ccccc1)C(=O)N[C@@H](CC(C)C)C(=O)[C@@]1(C)CO1 [Carfilzomib] + Nc1ncn([C@H]2C[C@H](O)[C@@H](CO)O2)c(=O)n1 [Decitabine] (partner 2 µM)
How it was run: (§1)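 Relative viability was taken as the ratio of nuclei in treated wells to nuclei in vehicle wells. Lung cancer cell lines in 1536-well plates received compounds by pin tool one day after seeding, either one drug alone or a fixed anchor-drug dose plus five library-drug doses (not always all listed) in √10 steps. Nuclei were counted on 4× images after 5 days of treatment, and values are medians of duplicate plates.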

Carfilzomib + Tozasertib = compound: CC(C)C[C@H](NC(=O)[C@H](CCc1ccccc1)NC(=O)CN1CCOCC1)C(=O)N[C@@H](Cc1ccccc1)C(=O)N[C@@H](CC(C)C)C(=O)[C@@]1(C)CO1 [Carfilzomib] + Cc1cc(Nc2cc(N3CCN(C)CC3)nc(Sc3ccc(NC(=O)C4CC4)cc3)n2)n[nH]1 [Tozasertib] (partner 0.1 µM)
How it was run: as §1

Crizotinib + Linsitinib = compound: C[C@@H](Oc1cc(-c2cnn(C3CCNCC3)c2)cnc1N)c1c(Cl)ccc(F)c1Cl [Crizotinib] + C[C@]1(O)C[C@@H](c2nc(-c3ccc4ccc(-c5ccccc5)nc4c3)c3c(N)nccn32)C1 [Linsitinib] (partner 1 µM)
How it was run: as §1

Carfilzomib + OSI-027 = compound: CC(C)C[C@H](NC(=O)[C@H](CCc1ccccc1)NC(=O)CN1CCOCC1)C(=O)N[C@@H](Cc1ccccc1)C(=O)N[C@@H](CC(C)C)C(=O)[C@@]1(C)CO1 [Carfilzomib] + COc1cccc2cc(-c3nc([C@H]4CC[C@H](C(=O)O)CC4)n4ncnc(N)c34)[nH]c12 [OSI-027] (partner 0.5 µM)
How it was run: as §1

Row | Cell Line | relative viability (Carfilzomib + Decitabine; first compound 0.001 µM) | relative viability (Carfilzomib + Decitabine; first compound 0.003162 µM) | relative viability (Carfilzomib + Decitabine; first compound 0.01 µM) | relative viability (Carfilzomib + Decitabine; first compound 0.03162 µM) | relative viability (Carfilzomib + Decitabine; first compound 0.1 µM) | relative viability (Carfilzomib + Tozasertib; first compound 0.001 µM) | relative viability (Carfilzomib + Tozasertib; first compound 0.003162 µM) | relative viability (Carfilzomib + Tozasertib; first compound 0.01 µM) | relative viability (Carfilzomib + Tozasertib; first compound 0.03162 µM) | relative viability (Carfilzomib + Tozasertib; first compound 0.1 µM) | relative viability (Crizotinib + Linsitinib; first compound 0.01 µM) | relative viability (Crizotinib + Linsitinib; first compound 0.03162 µM) | relative viability (Crizotinib + Linsitinib; first compound 0.1 µM) | relative viability (Crizotinib + Linsitinib; first compound 0.3162 µM) | relative viability (Crizotinib + Linsitinib; first compound 1 µM) | relative viability (Carfilzomib + OSI-027; first compound 0.001 µM) | relative viability (Carfilzomib + OSI-027; first compound 0.003162 µM) | relative viability (Carfilzomib + OSI-027; first compound 0.01 µM) | relative viability (Carfilzomib + OSI-027; first compound 0.03162 µM) | relative viability (Carfilzomib + OSI-027; first compound 0.1 µM)
1 | LOU-NH91 | 0.823 | 0.864 | 0.852 | 0.413 | 0.389 | 0.742 | 0.801 | 0.635 | 0.289 | 0.246 | 0.902 | 0.916 | 0.963 | 0.991 | 0.939 | 0.77 | 0.801 | 0.711 | 0.259 | 0.322
2 | LU99A | 0.952 | 1.13 | 0.961 | 0.821 | 0.317 | 0.282 | 0.286 | 0.326 | 0.306 | 0.123 | 0.477 | 0.541 | 0.528 | 0.486 | 0.579 | 0.293 | 0.309 | 0.317 | 0.275 | 0.192
3 | LXF-289 | 0.368 | 0.399 | 0.375 | 0.162 | 0.0931 | 0.186 | 0.186 | 0.104 | 0.0498 | 0.0494 | 0.91 | 0.972 | 0.983 | 0.906 | 0.937 | 0.818 | 0.9 | 0.749 | 0.163 | 0.0509
4 | NCI-H23 | 0.33 | 0.336 | 0.307 | 0.24 | 0.164 | 0.382 | 0.428 | 0.376 | 0.122 | 0.13 | 0.557 | 0.642 | 0.619 |  | 0.774 | 0.592 | 0.887 | 0.716 | 0.145 | 0.144
5 | NCI-H322M | 0.621 | 0.756 | 0.615 | 0.718 | 0.505 | 0.473 | 0.52 | 0.556 | 0.433 | 0.337 | 0.811 | 0.954 | 1 | 0.96 | 0.903 | 0.592 | 0.624 | 0.606 | 0.462 | 0.332
6 | NCI-H358 | 0.208 | 0.24 | 0.181 | 0.0811 | 0.0784 | 0.0998 | 0.0949 | 0.127 | 0.057 | 0.0759 | 0.663 | 0.658 | 0.744 | 0.779 | 0.899 | 0.638 | 0.834 | 0.888 | 0.0702 | 0.0685
7 | NCI-H441 | 0.23 | 0.258 | 0.211 | 0.122 | 0.14 | 0.6 | 0.626 | 0.49 | 0.193 | 0.247 | 0.564 | 0.498 | 0.575 | 0.382 | 0.551 | 0.649 | 0.588 | 0.295 | 0.153 | 0.16
8 | NCI-H460 | 0.453 | 0.514 | 0.394 | 0.414 | 0.0292 | 0.363 | 0.51 | 0.48 | 0.512 | 0.0337 | 0.736 | 0.84 | 0.718 | 0.847 |  | 0.647 | 0.678 | 0.697 | 0.287 | 0.022
